Series [1] deals with Polymerase acidic protein (Influenza A virus (strain A/X-31 H3N2), UniProt Q9IQ47). As to the kind of experiment: Inhibition of recombinant Influenza virus A/X-31 N-terminal RdRp PA subunit (1 to 217) expressed in Escherichia coli using single-stranded circular DNA plasmid M13mp18 as substrate after 2 hrs by agarose gel electrophoresis. More on the design: species or system Influenza A virus (A/X-31(H3N2)).

Series [2] can be described thus: Cytotoxicity against MDCK cells assessed as cell viability measured at 24 hrs by MTS assay. Format: cell-based, Canis lupus familiaris. The conditions noted are these: dog.
The test system of series [3] is Influenza A virus. As to the kind of experiment: Antiviral activity against Influenza A virus (A/PR/8/1934(H1N1)) infected in HEK293T cells assessed as reduction in viral RNP reconstitution measured at 24 hrs by luciferase reporter gene assay. Format: functional, organism-based. As to conditions: A/Puerto Rico/8/1934(H1N1), HEK-293T. On the technique in general: Reporter assays use an easily measured gene product as a stand-in for the process of interest.

Series [4] relates to Influenza A virus. Put plainly: Antiviral activity against Influenza A virus (A/PR/8/1934(H1N1)) infected in MDCK cells assessed as 1-log10 reduction in viral RNA copy number after 24 hrs by quantitative RT-PCR analysis. Format: functional, organism-based. As to conditions: A/Puerto Rico/8/1934(H1N1).
Series [5] is described as follows: Cytotoxicity against HEK293T cells assessed as cell viability measured at 24 hrs by MTS assay. Type of series: cell-based, HEK-293T. The conditions noted are these: human. In general terms: Formazan colour is commonly taken as a measure of viable cells.
Series [6] concerns Influenza A virus. Put plainly: Antiviral activity against Influenza A virus (A/PR/8/1934(H1N1)) infected in MDCK cells assessed as 2-log10 reduction in viral RNA copy number after 24 hrs by quantitative RT-PCR analysis. Format: functional. As to conditions: A/Puerto Rico/8/1934(H1N1).
The subject of series [7] is Influenza A virus. Put plainly: Potency index, ratio of ribavirin EC90 to compound EC90 for Influenza A virus (A/PR/8/1934(H1N1)) infected in MDCK cells. Format: functional, A/Puerto Rico/8/1934(H1N1).
Series [8] has as its system Influenza A virus. Put plainly: Potency index, ratio of ribavirin EC99 to compound EC99 for Influenza A virus (A/PR/8/1934(H1N1)) infected in MDCK cells. Format: functional, A/Puerto Rico/8/1934(H1N1).

The text below walks through data of ChEMBL document CHEMBL3621162, “Virtual Screening and Biological Validation of Novel Influenza Virus PA Endonuclease Inhibitors” (ACS Med Chem Lett, 2015).

The IC50 is the concentration that inhibits the measured activity by half. As to `COc1cc2nc(N3CCOCC3)nc(N)c2cc1OC`, the half-maximal inhibitory concentration (IC50) in series [1] is over 500 µM.

On to `Cc1cc(=O)oc2n[nH]c(C)c12`, for which the IC50 in series [1] was over 500 µM.

As a reminder, the CC50 is the concentration at which the toxic effect on the cells reaches its halfway point. As a reminder, the EC50 is the concentration needed to bring the measured effect to its halfway point. In general, EC99 refers to the point of the concentration-response curve where the effect stands at 99%. Take `O=C(NCCCCNC(=O)c1cc2cc(O)c(O)cc2[nH]1)c1cc2cc(O)c(O)cc2[nH]1`: the CC50 at 24 h in series [2] and in series [5] was over 200 µM each time. The concentration for a half-maximal effect (EC50) in the series on Influenza A virus [3] stood at 24 µM; with Influenza A virus [4], 6.3 µM. Besides, the IC50 in series [1] amounted to 7 µM. For the same compound, the EC99 in the series on Influenza A virus [6] is 12 µM.

Turning to `O=C(O)C1C(C(=O)O)C(C(=O)O)C(C(=O)O)C(C(=O)O)C1C(=O)O` (configuration not stated), the 50% inhibitory concentration (IC50) in series [1] was over 500 µM.

Turning to `CNC(=O)c1cccc(Nc2nc(O)nc(O)c2C#N)c1`, the concentration for half-maximal inhibition (IC50) in series [1] is over 500 µM.

As for `O=C(O)c1nccnc1C(=O)Nc1nc(-c2cccs2)n[nH]1`, in series [1], the IC50 is over 500 µM.

As for `O=C(O)CCc1nn2c(nc1O)nc1ccccc12`, the concentration for half-maximal inhibition (IC50) in series [1] is over 500 µM.

Turning to `NC(=O)c1ncn([C@@H]2O[C@H](CO)[C@@H](O)[C@H]2O)n1` [RIBAVIRIN], the half-maximal cytotoxic concentration (CC50) at 24 h in series [2] and in series [5] was over 200 µM in each case. For the same compound, the EC50 with Influenza A virus [3] was determined as 8.4 µM. Moreover, in the series on Influenza A virus [6], the 99% effect concentration (EC99) was determined as 11 µM.

Take `O=C(O)CC1C(=O)NCCN1CCCc1ccccc1` (configuration not stated): the concentration for half-maximal inhibition (IC50) in series [1] was over 500 µM.

As to `CCOC(=O)c1c(O)c2cc(OC)ccc2n(C)c1=O`, in series [1], the IC50 was over 500 µM.

As to `O=C(NCCCNC(=O)c1cc2cc(O)c(O)cc2[nH]1)c1cc2ccccc2[nH]1`, the CC50 at 24 h in series [2] and in series [5] was over 200 µM throughout. The results for the concentration giving a half-maximal response (EC50) with Influenza A virus [3] and with Influenza A virus [4] were 64 µM and 32 µM, respectively. In series [1], the IC50 was determined as 65 µM. The 99% effect concentration (EC99) in the series with Influenza A virus [6] is 73 µM.

With `Cc1cc(NC(=O)c2c(O)nc(O)[nH]c2=O)no1`, the half-maximal inhibitory concentration (IC50) in series [1] was over 500 µM.

Turning to `O=C(O)CCc1nnc(SCc2ccc(Cl)cc2)nc1O`, the concentration for half-maximal inhibition (IC50) in series [1] is over 500 µM.

In the case of `Cc1nc(SCc2ccccc2)nc(O)c1CC(=O)O`, the 50% inhibitory concentration (IC50) in series [1] was over 500 µM.

As to `O=C(CC(=O)Nc1ccccc1)NNc1ccc([N+](=O)[O-])cc1`, the half-inhibitory concentration (IC50) in series [1] is over 500 µM.

For `O=C(NCCc1ccc(O)c(O)c1)c1cc2cc(O)c(O)cc2[nH]1`, the Ratio in the series with Influenza A virus [7] and in the series with Influenza A virus [8] was 2 throughout. In addition, the figures for the 50% cytotoxic concentration (CC50) at 24 h in series [2] and in series [5] were at least 50 µM and 110 µM, respectively. Also, the EC50 in the series on Influenza A virus [3] worked out at 16 µM; with Influenza A virus [4], 3.2 µM. In addition, in series [1], the IC50 is 0.94 µM. In addition, the EC99 in the series on Influenza A virus [6] is 5.7 µM.

For the compound `O=C(O)/C(O)=C/C(=O)C1(Cc2ccc(Cl)cc2)CCN(Cc2ccccc2)CC1`, the results for the 50% cytotoxic concentration (CC50) at 24 h in series [2] and in series [5] were 181 µM and over 100 µM, respectively. The values for the EC50 in the series on Influenza A virus [3] and in the series on Influenza A virus [4] were 3.4 µM and 5.4 µM, respectively. Also, the IC50 in series [1] was found to be 0.48 µM. Also, in the series on Influenza A virus [6], the EC99 was 8.4 µM.
